In PMC8154566, “Scaffold-Hopping Strategy on a Series of Proteasome Inhibitors Led to a Preclinical Candidate for the Treatment of Visceral Leishmaniasis” (Journal of Medicinal Chemistry, 2021):
In brackets after ≈: the same amount, converted by molar mass. Like-named read-outs stand apart in the source and are kept apart here. Marks after values point to notes of the source that are not given here.

What was measured:
THP-1 cells [1] = conditions: cited from earlier work
[2] = Kinetic aqueous solubility by CLND; format: physicochemical
Experimental: We had successfully used these criteria in the hit to lead stage to identify compounds for in vivo proof-of-concept studies in another program, which subsequently led to the identification of preclinical candidate DDD853651/GSK3186899 active against CRK12.[7] […] A pharmacokinetic (PK) study was thus performed, dosed at 10 mg/kg po and 3 mg/kg iv. […] With the limited knowledge of the PK/PD drivers for the treatment of VL, we considered this to be a suitable profile for the progression of 4 into a previously reported mouse efficacy model of VL,[6],[7],[17],[18] where it was dosed twice daily at 50 mg/kg ip in order to further maximize exposure and give the best chance of achieving proof-of-concept.
(§1) Intramacrophage L. donovani Assay. This assay was conducted as previously described, except for compound exposure time, which was 96 h instead of 72 h.4
(§2) Intrinsic Clearance. This assay was conducted as previously described.5 Aqueous Solubility. This assay was conducted as previously described.6
(§3) FaSSIF Solublity. This assay was conducted as previously described.5,7
(§4) In vivo Mouse Efficacy Studies. In vivo studies were carried out as previously described, with minor modifications.7 Briefly: Control drug used was Miltefosine (30 mg/kg orally, twice daily for 5 days), vehicle used was 10% (v/v) dimethyl sulfoxide (DMSO), 40% polyethylene glycol 400, and 50% deionized water (10 Ml/kg orally, twice daily for 5 days) and mice were treated with test compound intraperitoneally (50 mg/kg twice daily for 5 days). 5
(§5) All regulated procedures on living animals were carried out under the authority of a project license issued by the Home Office under the Animals (Scientific Procedures) Act 1986, as amended in 2012 (and in compliance with EU Directive EU/2010/63). Infected animals had access to food and water ad libitum and were housed under a 12 hour light/dark photoperiod. Animals used in these experiments were female NMRI and Balb/c mice (Harlan, UK).
(§6) Test compound DDD01008714 was dosed orally (P.O.) at 10 mg free base/kg (dose volume 10 mL/kg; dose vehicle: 10% (vol/vol) dimethyl sulfoxide (DMSO), 40% polyethylene glycol 400 (PEG400) and 50% deionized water) to female NMRI mice (n = 3) or intravenously (I.V.) at 3 mg free base/kg (dose volume 5 mL/kg; dose vehicle: 10% (vol/vol) dimethyl sulfoxide (DMSO) and 90% Saline) to female Balb/c mice (n = 3). Blood samples (10 μL) where taken from the tail vein of […]

[3] = design: method as in PMID 30962368; conditions: cited from earlier work
[4] = Table 6; mouse liver microsomes; cited from earlier work
PI3Kγ = PI3Kγ (Homo sapiens, UniProt P48736); experiment: Kinase screen PI3Kγ; format: biochemical
L. donovani amastigotes [5] = conditions: cited from earlier work
LCK = LCK (Homo sapiens, UniProt P06239); experiment: Kinase screen LCK; format: biochemical
[6] = design: method as in PMID 30962368; conditions: dosed in rats at 300 mg/kg; cited from earlier work
AuroraB = AuroraB (Homo sapiens, UniProt Q96GD4); experiment: Kinase screen AuroraB; format: biochemical
THP-1 cells [7] = experiment: THP-1 host cell read-out of the INMAC assay; format: cell-based; conditions: for EC50 / IC50: Homo sapiens; for EC50 / THP-1 pEC50: Table 6; for EC50: read-out: THP-1 pEC50 (converted)
Experimental: (§7) Intramacrophage L. donovani Assay. This assay was conducted as previously described, except for […]

L. donovani amastigotes [8] = experiment: INMAC assay: intramacrophage L. donovani in differentiated THP-1 cells; format: cell-based, Leishmania donovani; conditions: for EC50: THP-1, read-out: INMAC pEC50 (converted); for EC50 / INMAC pEC50: Table 6, at least three replicates, SD ≤0.4; for LdInMac pIC50: supplementary csv
Experimental: as §7

[9] = FaSSIF (fasted state simulated intestinal fluid) solubility; format: physicochemical; conditions: for solubility at 4 h: pH 6.5, Table 6
Experimental: as §1, §2, §3, §4, §5, §6

[10] = Mouse liver microsomal intrinsic clearance; format: in vitro ADME; conditions: for Mouse CLi: Table 6, mouse liver microsomes; for Cli (mouse, ml/min/g): supplementary csv
Experimental: as §1, §2, §3, §4, §5, §6

[11] = supplementary csv, flagged as reported previously in the main tables
[12] = Table 6, kinetic, CLND, read-out: Aq. solubility
[13] = THP-1, supplementary csv, read-out: THP1 pIC50 (converted)
[14] = supplementary csv, read-out: Aqueous Solubility

PI3Kγ, sequence (P48736 whole entry): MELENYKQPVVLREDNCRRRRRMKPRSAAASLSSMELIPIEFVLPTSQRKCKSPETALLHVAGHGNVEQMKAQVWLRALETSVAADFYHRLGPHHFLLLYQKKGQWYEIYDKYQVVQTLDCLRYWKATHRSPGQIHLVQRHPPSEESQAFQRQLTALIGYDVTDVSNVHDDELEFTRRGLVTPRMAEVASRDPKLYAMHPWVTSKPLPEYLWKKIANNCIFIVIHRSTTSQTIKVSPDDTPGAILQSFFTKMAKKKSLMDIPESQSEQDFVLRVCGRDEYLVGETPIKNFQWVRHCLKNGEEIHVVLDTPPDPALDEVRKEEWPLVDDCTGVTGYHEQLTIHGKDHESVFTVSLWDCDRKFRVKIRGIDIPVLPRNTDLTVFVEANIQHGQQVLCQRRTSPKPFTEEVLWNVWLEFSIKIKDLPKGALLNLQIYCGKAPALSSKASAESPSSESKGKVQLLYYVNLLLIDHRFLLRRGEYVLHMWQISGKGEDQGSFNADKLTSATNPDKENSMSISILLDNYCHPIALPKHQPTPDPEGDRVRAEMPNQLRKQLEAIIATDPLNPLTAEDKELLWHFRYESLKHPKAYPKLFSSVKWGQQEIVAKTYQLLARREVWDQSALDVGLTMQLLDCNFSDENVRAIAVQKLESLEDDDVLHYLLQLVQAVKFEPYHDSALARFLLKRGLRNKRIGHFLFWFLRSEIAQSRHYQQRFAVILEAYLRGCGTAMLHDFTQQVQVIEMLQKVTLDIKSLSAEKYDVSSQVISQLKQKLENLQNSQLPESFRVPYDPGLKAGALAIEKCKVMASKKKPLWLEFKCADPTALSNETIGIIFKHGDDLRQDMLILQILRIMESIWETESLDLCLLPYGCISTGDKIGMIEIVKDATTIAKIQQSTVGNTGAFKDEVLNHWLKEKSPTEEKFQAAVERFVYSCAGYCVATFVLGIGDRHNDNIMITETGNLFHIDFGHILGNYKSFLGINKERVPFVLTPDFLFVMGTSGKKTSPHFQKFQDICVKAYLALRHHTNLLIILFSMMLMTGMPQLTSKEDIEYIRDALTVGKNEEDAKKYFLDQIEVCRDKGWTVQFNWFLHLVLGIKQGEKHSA
AuroraB, sequence (Q96GD4 whole entry): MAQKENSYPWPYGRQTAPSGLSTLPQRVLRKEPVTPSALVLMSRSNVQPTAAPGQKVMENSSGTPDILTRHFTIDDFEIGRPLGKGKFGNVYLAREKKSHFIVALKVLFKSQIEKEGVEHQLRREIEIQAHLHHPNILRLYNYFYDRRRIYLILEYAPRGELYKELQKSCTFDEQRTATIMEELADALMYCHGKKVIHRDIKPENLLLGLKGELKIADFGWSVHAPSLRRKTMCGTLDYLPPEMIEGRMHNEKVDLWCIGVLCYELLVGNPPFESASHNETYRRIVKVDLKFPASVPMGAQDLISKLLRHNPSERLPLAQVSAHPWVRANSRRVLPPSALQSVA
LCK, sequence (P06239 whole entry): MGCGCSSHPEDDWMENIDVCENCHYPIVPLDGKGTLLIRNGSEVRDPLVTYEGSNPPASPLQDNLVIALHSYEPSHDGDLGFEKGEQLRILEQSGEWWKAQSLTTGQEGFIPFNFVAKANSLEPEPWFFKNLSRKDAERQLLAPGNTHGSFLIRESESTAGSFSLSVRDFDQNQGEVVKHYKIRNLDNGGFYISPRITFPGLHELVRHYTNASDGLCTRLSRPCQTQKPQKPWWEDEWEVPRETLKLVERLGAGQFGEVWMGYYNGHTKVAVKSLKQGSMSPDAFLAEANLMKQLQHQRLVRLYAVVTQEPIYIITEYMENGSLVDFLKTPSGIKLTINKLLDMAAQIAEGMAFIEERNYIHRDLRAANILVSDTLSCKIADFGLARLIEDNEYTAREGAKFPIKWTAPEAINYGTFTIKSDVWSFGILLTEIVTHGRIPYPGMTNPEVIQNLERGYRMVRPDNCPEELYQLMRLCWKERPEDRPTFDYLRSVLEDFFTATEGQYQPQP

O=C(Nc1ccc(F)c(-c2ccn3c(N4CCOCC4)cnc3n2)c1)N1CCCC1 [Compound 1]
THP-1 pEC50 (THP-1 cells [1]; Table 5): <4.3 | THP1 pIC50 (THP-1 cells [1]; [11]): <4.3 | solubility [2, 12]: 420 µM (≈ 172 µg/mL) | Ames assay result [3]: negative | Mouse CLi [4]: 0.8^e mL/min/g | pIC50 PI3Kγ (PI3Kγ): < 4.5 | INMAC pEC50 (L. donovani amastigotes [5]; Table 5): 5.8 | LdInMac pIC50 (L. donovani amastigotes [5]; [11]): 5.8 | pIC50 LCK (LCK): < 4.5 | predicted safety margin [6]: at least 37 fold | pIC50 AuroraB (AuroraB): < 4.5

O=C(Nc1cccc(-c2nc3ncccc3o2)c1)c1ccco1 [Compound 3]
THP-1 pEC50 (THP-1 cells [1]; Table 3): <4.3 | INMAC pEC50 (L. donovani amastigotes [5]; Table 3): 5.2

CC(=O)N1CCN(c2cnc3nc(-c4cc(NC(=O)N5CCCC5)ccc4F)ccn23)CC1 [Compound 36, N-(3-(3-(4-Acetylpiperazin-1-yl)imidazo[1,2-a]pyrimidin-7-yl)-4-fluorophenyl)pyrrolidine-1-carboxamide]
EC50 (THP-1 cells [7]; THP-1): > 50.1 µM | IC50 (THP-1 cells [7]; [13]): > 50.1 µM | IC50 (L. donovani amastigotes [8]; Leishmania donovani, THP-1, read-out: LdInMac pIC50 (converted)): > 50.1 µM | EC50 (L. donovani amastigotes [8]; Leishmania donovani): > 50.1 µM | solubility [2, 12]: ≥ 381 µM | solubility [2, 14]: ≥ 380 µM | solubility at 4 h [9]: 1310 µM (≈ 591 µg/mL) | solubility ([9]; supplementary csv): > 1000 µM | Mouse CLi [10]: 1.5 mL/min/g | Cli (mouse, ml/min/g) [10]: 1.5 mL/min/g

CC1CN(c2cnc3nc(-c4cc(NC(=O)N5CCCC5)ccc4F)ccn23)CCO1 (centres unmarked) [Compound 38, N-(4-Fluoro-3-(3-(2-methylmorpholino)imidazo[1,2-a]pyrimidin-7-yl)phenyl)pyrrolidine-1-carboxamide]
EC50 (THP-1 cells [7]; THP-1): 50.1 µM | IC50 (THP-1 cells [7]; [13]): 50.1 µM | EC50 (L. donovani amastigotes [8]; Leishmania donovani): 0.794 µM | solubility [2, 12]: 248 µM (≈ 105 µg/mL) | solubility [2, 14]: 250 µM (≈ 106 µg/mL) | solubility at 4 h [9]: 252 µM (≈ 107 µg/mL) | solubility ([9]; supplementary csv): 250 µM (≈ 106 µg/mL) | Mouse CLi [10]: 1.7 mL/min/g | Cli (mouse, ml/min/g) [10]: 1.7 mL/min/g

C[C@@H]1CN(c2cnc3nc(-c4cc(NC(=O)N5CCCC5)ccc4F)ccn23)C[C@H](C)O1 [Compound 41, N-(3-(3-((2S,6R)-2,6-Dimethylmorpholino)imidazo[1,2-a]pyrimidin-7-yl)-4-fluorophenyl)pyrrolidine-1-carboxamide]
IC50 (THP-1 cells [7]; THP-1, read-out: THP1 pIC50 (converted)): 63.1 µM | EC50 (THP-1 cells [7]; THP-1): 63.1 µM | EC50 (L. donovani amastigotes [8]; Leishmania donovani): 1.58 µM | solubility [2, 12]: 142 µM (≈ 62.3 µg/mL) | solubility [2, 14]: 170 µM (≈ 74.5 µg/mL) | solubility at 4 h [9]: 372 µM (≈ 163 µg/mL) | solubility ([9]; supplementary csv): 365 µM (≈ 160 µg/mL) | Mouse CLi [10]: 3.4 mL/min/g | Cli (mouse, ml/min/g) [10]: 3.4 mL/min/g

CC1(C)CN(c2cnc3nc(-c4cc(NC(=O)N5CCCC5)ccc4F)ccn23)CCO1 [Compound 42, N-(3-(3-(2,2-Dimethylmorpholino)imidazo[1,2-a]pyrimidin-7-yl)-4-fluorophenyl)pyrrolidine-1-carboxamide]
EC50 (THP-1 cells [7]; THP-1): 25.1 µM | IC50 (THP-1 cells [7]; [13]): 25.1 µM | EC50 (L. donovani amastigotes [8]; Leishmania donovani): 1 µM | solubility [2, 12]: 247 µM (≈ 108 µg/mL) | solubility [2, 14]: 250 µM (≈ 110 µg/mL) | solubility at 4 h [9]: 1840 µM (≈ 806 µg/mL) | solubility ([9]; supplementary csv): > 1000 µM | Mouse CLi [10]: 2.9 mL/min/g | Cli (mouse, ml/min/g) [10]: 2.9 mL/min/g

CC1(C)COCCN1c1cnc2nc(-c3cc(NC(=O)N4CCCC4)ccc3F)ccn12 [Compound 43, N-(3-(3-(3,3-Dimethylmorpholino)imidazo[1,2-a]pyrimidin-7-yl)-4-fluorophenyl)pyrrolidine-1-carboxamide]
EC50 (THP-1 cells [7]; THP-1): 50.1 µM | IC50 (THP-1 cells [7]; [13]): 50.1 µM | EC50 (L. donovani amastigotes [8]; Leishmania donovani): 0.794 µM | solubility [2, 12]: 210 µM (≈ 92.1 µg/mL) | solubility at 4 h [9]: 627 µM (≈ 275 µg/mL) | solubility ([9]; supplementary csv): 630 µM (≈ 276 µg/mL) | Mouse CLi [10]: 6.0 mL/min/g | Cli (mouse, ml/min/g) [10]: 6 mL/min/g

O=C(Nc1ccc(F)c(-c2ccn3c(N4CCC5(CCOC5)C4)cnc3n2)c1)N1CCCC1 (centres unmarked) [Compound 44, N-(3-(3-(2-Oxa-7-azaspiro[4.4]nonan-7-yl)imidazo[1,2-a]pyrimidin-7-yl)-4-fluorophenyl)pyrrolidine-1-carboxamide]
EC50 (THP-1 cells [7]; THP-1): 50.1 µM | IC50 (THP-1 cells [7]; [13]): 50.1 µM | EC50 (L. donovani amastigotes [8]; Leishmania donovani): 1.26 µM | solubility [2, 12]: 339 µM (≈ 153 µg/mL) | solubility [2, 14]: 340 µM (≈ 153 µg/mL) | solubility at 4 h [9]: 852 µM (≈ 384 µg/mL) | solubility ([9]; supplementary csv): 850 µM (≈ 383 µg/mL) | Mouse CLi [10]: 3.7 mL/min/g | Cli (mouse, ml/min/g) [10]: 3.7 mL/min/g

CC(C)Nc1cnc2nc(-c3cc(NC(=O)N4CCCC4)ccc3F)ccn12 [Compound 45, N-(4-Fluoro-3-(3-(isopropylamino)imidazo[1,2-a]pyrimidin-7-yl)phenyl)pyrrolidine-1-carboxamide]
EC50 (THP-1 cells [7]; THP-1): 50.1 µM | IC50 (THP-1 cells [7]; [13]): 50.1 µM | EC50 (L. donovani amastigotes [8]; Leishmania donovani): 2.51 µM | solubility [2, 12]: 124 µM (≈ 47.4 µg/mL) | solubility [2, 14]: 120 µM (≈ 45.9 µg/mL) | solubility at 4 h [9]: 13 µM (≈ 4.97 µg/mL) | Mouse CLi [10]: 5.2 mL/min/g | Cli (mouse, ml/min/g) [10]: 5.2 mL/min/g

(R)-N-(4-Fluoro-3-(3-(3-methylmorpholino)imidazo[1,2-a]pyrimidin-7-yl)phenyl)pyrrolidine-1-carboxamide [Compound 39]
THP-1 pEC50 (THP-1 cells [7]): 4.3 | THP1 pIC50 (THP-1 cells [7]; supplementary csv): 4.3 | INMAC pEC50 (L. donovani amastigotes [8]): 5.9 | LdInMac pIC50 (L. donovani amastigotes [8]): 5.9 | solubility [2, 12]: ≥362 µM | Aqueous Solubility ([2]; supplementary csv): ≥ 360 µM | FaSSIF solubility ([9]; Table 6): 1,322 μM | FaSSIF solubility ([9]; supplementary csv): >1000 µM | Mouse CLi [10]: 2.7 mL/min/g | Cli (mouse, ml/min/g) [10]: 2.7 mL/min/g

(S)-N-(4-Fluoro-3-(3-(3-methylmorpholino)imidazo[1,2-a]pyrimidin-7-yl)phenyl)pyrrolidine-1-carboxamide [Compound 40]
THP-1 pEC50 (THP-1 cells [7]): 4.3 | THP1 pIC50 (THP-1 cells [7]; supplementary csv): 4.3 | INMAC pEC50 (L. donovani amastigotes [8]): 6.0 | LdInMac pIC50 (L. donovani amastigotes [8]): 6 | solubility [2, 12]: 345 µM | Aqueous Solubility ([2]; supplementary csv): 350 µM | FaSSIF solubility ([9]; Table 6): 1,578 μM | FaSSIF solubility ([9]; supplementary csv): >1000 µM | Mouse CLi [10]: 1.8 mL/min/g | Cli (mouse, ml/min/g) [10]: 1.8 mL/min/g
